Reference: patent publication US8921318B2, “Application of initial doses of LHRH analogues and maintenance doses of LHRH antagonists for the treatment of hormone-dependent cancers and corresponding pharmaceutical kits” (Aeterna Zentaris GmbH, priority 2006, dated 2014)

Columns and labels:
testosterone levels = assay: Testosterone levels in prostate cancer patients under initial dose / maintenance dose treatment; format: in vivo, human; details: for testosterone levels during first period: prostate cancer patients
Description: (§1) 130 mg ozarelix is given as a single monthly initial dose per i.m. injection every 4 weeks to patients suffering from prostate cancer for a first period of 3 months. […] Subsequently, patients are treated with single monthly maintenance doses of 30 mg ozarelix given per i.m. injection over a period of 6 months. […] The treatment scheme is then repeated continuously (chronic treatment).
(§2) 200 mg ozarelix is given as a single initial dose per i.m. injection once every 3 months to patients suffering from prostate cancer for a first period of 3 to 6 months. […] Subsequently, patients are treated with single monthly maintenance doses of 40 mg ozarelix given per i.m. injection over a period of 6 months. […] The treatment scheme is then repeated continuously (chronic treatment).
(§3) 3.75 mg leuprorelin (leuprolide) are given as a single monthly initial dose per i.m. injection every 4 weeks to patients suffering from prostate cancer for a first period of 6 months. […] Subsequently, patients are treated with single monthly maintenance doses of 20 mg ozarelix given per i.m. injection over a period of 9 months. […] The treatment scheme is then repeated continuously (chronic treatment).
(§4) 11.25 mg leuprorelin (leuprolide) are given as a single initial dose per i.m. injection once every three months to patients suffering from prostate cancer for a first period of 3 months. […] Subsequently, patients are treated with single monthly maintenance doses of 50 mg ozarelix given per i.m. injection over a period of 3 months. […] The treatment scheme is then repeated continuously (chronic treatment).

[1] = test system: Prostate Specific Antigen (PSA); assay: PSA levels in prostate cancer patients under initial dose / maintenance dose treatment; format: in vivo, human; details: for PSA levels decrease during first period: prostate cancer patients
Description: as §1, §2, §3, §4

[2] = Example 3: 3.75 mg leuprorelin i.m. single monthly initial dose every 4 weeks, first period 6 months
[3] = Example 4: 11.25 mg leuprorelin i.m. single initial dose once every three months, first period 3 months
[4] = Example 1: 130 mg ozarelix i.m. single monthly initial dose every 4 weeks, first period 3 months
[5] = Example 1: monthly maintenance doses of 30 mg ozarelix i.m. over 6 months, after 130 mg ozarelix initial doses
[6] = Example 2: 200 mg ozarelix i.m. single initial dose once every 3 months, first period 3 to 6 months
[7] = Example 2: monthly maintenance doses of 40 mg ozarelix i.m. over 6 months, after 200 mg ozarelix initial doses
[8] = Example 3: monthly maintenance doses of 20 mg ozarelix i.m. over 9 months, after 3.75 mg leuprorelin initial doses
[9] = Example 4: monthly maintenance doses of 50 mg ozarelix i.m. over 3 months, after 11.25 mg leuprorelin initial dose

CCNC(=O)[C@@H]1CCCN1C(=O)[C@H](CCCNC(=N)N)NC(=O)[C@H](CC(C)C)NC(=O)[C@@H](CC(C)C)NC(=O)[C@H](Cc1ccc(O)cc1)NC(=O)[C@H](CO)NC(=O)[C@H](Cc1c[nH]c2ccccc12)NC(=O)[C@H](Cc1c[nH]cn1)NC(=O)[C@@H]1CCC(=O)N1 [leuprorelin]
testosterone levels during first period (testosterone levels; [2]): quickly reach castration level
testosterone levels during first period (testosterone levels; [3]): quickly reach castration level
PSA levels decrease during first period [1, 2]: up to 95%
PSA levels decrease during first period [1, 3]: up to 95%

ozarelix
testosterone levels during first period (testosterone levels; [4]): quickly reach castration level
testosterone levels during second period (testosterone levels; [5]): above 0.5 ng/mL
testosterone levels during first period (testosterone levels; [6]): quickly reach castration level
testosterone levels during second period (testosterone levels; [7]): above 0.5 ng/mL
testosterone levels during second period (testosterone levels; [8]): above 0.5 ng/mL
testosterone levels during second period (testosterone levels; [9]): above 0.5 ng/mL
PSA levels decrease during first period [1, 4]: up to 95%
PSA levels during second period [1, 5]: remain stably low until the end of the second period
PSA levels decrease during first period [1, 6]: up to 95%
PSA levels during second period [1, 7]: remain stably low until the end of the second period
PSA levels during second period [1, 8]: remain stably low until the end of the second period
PSA levels during second period [1, 9]: remain stably low until the end of the second period
